{"source": "paper PMC6988309", "about": "“Preclinical efficacy for a novel tyrosine kinase inhibitor, ArQule 531 against acute myeloid leukemia” (Journal of Hematology & Oncology, 2020)", "key": {"[1]": {"system": "Ba/F3 FLT3-ITD pMIT SYK-TEL", "experimental": "CellTiter 96 Aqueous MTS reagent (Promega, Madison, WI) was added to cells followed by a 3-h incubation at 37 °C, 5% CO2. The absorbance was measured at 490 nm using DTX 880 plate reader and the half maximal inhibitory concentration (IC50) was calculated using GraphPad Prism 7 (GraphPad Software, La Jolla, CA) and SAS/STAT software (SAS v9.4 for Windows, SAS Institute, Inc., Cary, NC)."}, "[2]": {"system": "MOLM-13, MV4-11, and OCI-AML3 cell lines", "test": "Annexin/PI apoptosis assay 72 h", "format": "cell-based, human", "details": "increasing concentrations of ARQ 531 or 50 nM gilteritinib", "method": "Cells were treated for 72 h then stained for 20 min in 1X Annexin Binding buffer (BD Biosciences, Franklin Lakes, NJ) containing Annexin V-FITC and Propidium Iodine (Leinco Technologies, Fenton, MO). Live and apoptotic cells were measured using FC 500 flow cytometer and analyzed on Kaluza software (Beckman Coulter, Pasadena, CA)."}, "[3]": {"system": "primary AML patient blasts", "test": "Colony-Forming Unit-Granulocyte and Macrophage (CFU-GM) assay", "format": "cell-based, human", "details": "0.1 µM, colonies counted after 14 days", "method": "Primary AML patient samples were treated and plated at 5000–10,000 cells in 1.1 ml methylcellulose supplemented with recombinant human stem cell factor, interleukin 3, granulocyte colony-stimulating factor, and granulocyte-macrophage colony-stimulating factor (MethoCult™, […] Technologies, Vancouver, Canada) per dish in duplicates. Colonies were counted after 14 days when using primary patient samples.\n(§1) MTS proliferation assay using a human stroma co-culture assay. […] FLT3 wild-type (WT) samples (red) and FLT3-ITD (black). Colony-Forming Unit-Granulocyte and Macrophage (CFU-GM) assay. […] Number of colonies were counted after 14 days (c)"}, "[4]": {"system": "phosphorylated SYK (tyrosine 525/526)", "test": "Immunoblot of phospho-SYK Tyr525/526", "format": "cell-based, human", "details": "MOLM-13, MV4-11, and OCI-AML3, 10-min treatment", "method": "(§2) Cell lines were serum starved overnight followed by a 10-min treatment. Cells were washed in ice-cold PBS then lysed in 1X Cell Lysis Buffer (CST) supplemented with proteinase and phosphatase inhibitors cocktail (Roche). Pierce BCA Protein Assay was used to quantify the protein lysates (Thermo Fisher Scientific, Waltham, MA). For Immunoblotting, 15–25 μg of protein lysate was prepared in 2X or 4X Laemmeli’s sample buffer (Bio-Rad Laboratories, Hercules, CA) and heated for 5 min at 100 °C. Samples were separated on 8% sodium dodecyl sulfate polyacrylamide gel and transferred onto nitrocellulose membrane (Bio-Rad Laboratories, Hercules, CA). The membranes were blocked for 1 h in Blocker BLOTTO Blocking Buffer (Thermo Fisher Scientific, Waltham, MA) or 5% non-fat milk followed by overnight incubation at 4 °C with primary antibody followed by HRP-conjugated secondary antibodies and visualized with chemiluminescent Pierce ECL Substrate (Thermo Fisher Scientific, Waltham, MA) on X-ray films.\nFig. 3 ARQ 531 modulates AML pro-survival kinases. Immunoblot analysis for MOLM-13, MV4-11, and OCI-AML3 AML cell lines (representative of 2-3 independent blots). […] Twenty to 25 μg of total protein lysate was loaded per lane. GAPDH, HSP90, or β-Actin were used as loading controls. a, b Modulation of phosphorylated SFK and downstream targets in FLT3-ITD cell lines MOLM-13 and MV-11, respectively. c, d Modulation of phosphorylated SYK and BTK in all three cell lines"}, "[5]": {"system": "primary AML patient blasts", "test": "MTS proliferation assay, primary AML blasts co-cultured with HS5-GFP stroma cells, 96 h", "format": "cell-based, human", "details": "HS5-GFP co-culture", "text": "For in vitro cytotoxicity experiments (Fig. 1b–d), repeated measures models were used to account for correlations among observations from the same experiment. The percentage of live cells was compared at each concentration with DMSO. […] Mixed effects models were used in experiments described in Additional file 1: Table S4 and Fig. 2c to account for correlations within a single patient. Outcome data were first log-transformed to stabilize variances and reduce skewness. For survival experiments (Figs. 5 and 6a), Kaplan-Meier curves were produced and group differences for Fig. 5 and assessed by the log-rank test and for Fig. 6a, p values have been adjusted for multiple comparisons using Holm’s procedure. p values from experiments with multiple endpoints were adjusted for multiple comparisons using either Holm’s procedure or Dunnett’s test (all comparisons against vehicle/DMSO).\nas §1"}, "[6]": {"system": "MOLM-13 disseminated AML xenograft", "test": "MOLM-13 disseminated xenograft, ARQ + Ven combination study (NCG mice)", "format": "in vivo", "details": "50 mg/kg ARQ 531 and/or 75 mg/kg venetoclax Q.D.P.O from 4 days post-engraftment until ERC; vehicle 25 days", "method": "All experiments were conducted after approval of The Ohio State University Institutional Animal Care and Use Committee. Mice were randomized and enrolled for daily oral gavage (Q.D.P.O) treatment of vehicle or 50 mg/kg ARQ 531. Mice were treated until reaching early removal criteria (ERC) defined as 20% weight loss, lethargy, hind limb paralysis, moribund, anorexia, dehydration, hunched posture, severe diarrhea, breathing difficulties, or any abnormal neurological symptoms. […]\nFig. 7 BCL2 inhibition improves ARQ 531 in vivo activity. a Kaplan–Meier survival curve in the MOLM-13 xenograft after mice were treated with vehicle (N = 9) or 50 mg/kg ARQ 531 Q.D.P.O (N = 9) or 75 mg/kg venetoclax Q.D.P.O (N = 10) or 50 mg/kg ARQ 531 and 75 mg/kg venetoclax combination Q.D.P.O (N = 10) at 4 days post engraftment until ERC. b Noninvasive serial whole body bioluminescence imaging of ventral view to monitor leukemia progression and regression post treatment. Mice were injected with 150 mg/kg Firefly D-Luciferin for evaluation of tumor burden as determined by whole body bioluminescence imaging using IVIS imager"}, "MOLM-13": {"system": "MOLM-13", "test": "MTS proliferation assay 72 h, MOLM-13", "details": "MOLM-13, 1 µM, 72 hours MTS (ibrutinib 1 hour washout)", "experimental": "A total of 5000–30,000 cells from the lines above were treated in a 96-well plate for 72 h. CellTiter 96 Aqueous MTS reagent (Promega, Madison, WI) was added to cells followed by a 3-h incubation at 37 °C, 5% CO2. The absorbance was measured at 490 nm using DTX 880 plate reader and the half maximal inhibitory concentration (IC50) was calculated using GraphPad Prism 7 (GraphPad Software, La Jolla, CA) and SAS/STAT software (SAS v9.4 for Windows, SAS Institute, Inc., Cary, NC). For the MOLM-13 resistant and the Ba/F3-FLT3-ITD/TKD cell lines, cells were treated for 72 h and cell viability was evaluated using MTT assay (Roche Diagnostics. Mannheim. Germany) according to the manufacturer’s instructions."}, "BTK phosphorylation": {"system": "BTK phosphorylation", "test": "Immunoblot of phospho-BTK", "format": "cell-based, human", "method": "as §2, with “Cells” for “Cell lines were serum starved overnight followed by a 10-min treatment. Cells”\nImmunoblot analysis for MOLM-13, MV4-11, and OCI-AML3 AML cell lines (representative of 2-3 independent blots). […] Twenty to 25 μg of total protein lysate was loaded per lane."}}, "note": "“And” between values parts separate entries of the source, which are not always exact repeats. Equal values may be shown once."}
{"compound": "CCc1nc(C(N)=O)c(Nc2ccc(N3CCC(N4CCN(C)CC4)CC3)c(OC)c2)nc1NC1CCOCC1", "note": "[Gilteritinib, reference compound]", "values": [{"measurement": "IC50", "setting": "[1]", "value": "651 nM and 415 nM and 456 nM"}, {"measurement": "apoptosis / cytotoxicity (Annexin/PI)", "setting": "[2]", "value": "cytotoxic in the FLT3-ITD cell lines only"}, {"measurement": "Estimated ratio of colony formation vs. DMSO", "setting": "[3]", "value": 0.67}, {"measurement": "effect on phosphorylated SYK (tyrosine 525/526)", "setting": "[4]", "value": "down-modulated SYK phosphorylation only in the FLT3-ITD cell lines"}, {"measurement": "Estimated Ratio of proliferation versus vehicle (DMSO)", "setting": "[5]; 0.005 µM", "value": 1.02}, {"measurement": "Estimated Ratio of proliferation versus vehicle (DMSO)", "setting": "[5]; 0.01 µM", "value": 1.05}, {"measurement": "Estimated Ratio of proliferation versus vehicle (DMSO)", "setting": "[5]; 0.05 µM", "value": 1.06}, {"measurement": "Estimated Ratio of proliferation versus vehicle (DMSO)", "setting": "[5]; 0.1 µM", "value": 1.02}, {"measurement": "Estimated Ratio of proliferation versus vehicle (DMSO)", "setting": "[5]; 0.5 µM", "value": 0.99}, {"measurement": "Estimated Ratio of proliferation versus vehicle (DMSO)", "setting": "[5]; 1 µM", "value": 0.87}, {"measurement": "Estimated Ratio of proliferation versus vehicle (DMSO)", "setting": "[5]; 5 µM", "value": 0.78}, {"measurement": "Estimated Ratio of proliferation versus vehicle (DMSO)", "setting": "[5]; 10 µM", "value": 0.56}, {"measurement": "Estimated Ratio of proliferation versus vehicle (DMSO)", "setting": "[5]; 50 µM", "value": 0.54}]}
{"compound": "CC1(C)CCC(CN2CCN(c3ccc(C(=O)NS(=O)(=O)c4ccc(NCC5CCOCC5)c([N+](=O)[O-])c4)c(Oc4cnc5[nH]ccc5c4)c3)CC2)=C(c2ccc(Cl)cc2)C1", "note": "[venetoclax, reference compound]", "values": [{"measurement": "survival", "setting": "[6]", "value": 24, "unit": "days"}]}
{"compound": "CO[C@@H]1[C@H](N(C)C(=O)c2ccccc2)C[C@H]2O[C@]1(C)n1c3ccccc3c3c4c(c5c6ccccc6n2c5c31)C(=O)NC4", "note": "[Midostaurin, reference compound]", "values": [{"measurement": "effect on phosphorylated SYK (tyrosine 525/526)", "setting": "[4]", "value": "down-modulated SYK phosphorylation only in the FLT3-ITD cell lines"}, {"measurement": "IC50", "setting": "Ba/F3 FLT3-ITD Parental", "value": "95.4 nM and 63.3 nM"}]}
{"compound": "CC(C)(C)c1cc(NC(=O)Nc2ccc(-c3cn4c(n3)sc3cc(OCCN5CCOCC5)ccc34)cc2)no1", "note": "[quizartinib, Quizartinib]", "values": [{"measurement": "effect on phosphorylated SYK (tyrosine 525/526)", "setting": "[4]", "value": "down-modulated SYK phosphorylation only in the FLT3-ITD cell lines"}]}
{"compound": "c1cn2cc(-c3ccc4cn[nH]c4c3)nc(Nc3ccc(N4CCOCC4)cc3)c2n1", "note": "[entospletinib, Entospletinib, reference compound]", "values": [{"measurement": "in vitro anti-proliferative activity", "setting": "MOLM-13", "value": "potently inhibited proliferation"}]}
{"compound": "C=CC(=O)N1CCC[C@@H](n2nc(-c3ccc(Oc4ccccc4)cc3)c3c(N)ncnc32)C1", "note": "[ibrutinib, reference compound]", "values": [{"measurement": "effect on BTK phosphorylation", "setting": "BTK phosphorylation", "value": "potently inhibit BTK phosphorylation"}, {"measurement": "in vitro anti-proliferative activity", "setting": "MOLM-13", "value": "only ARQ 531 demonstrated in vitro anti-proliferative activity"}]}
